Assay results from patent publication US20110230493A1, “1-OXA-8-Azaspiro [4,5] Decabe-8-Carboxamide Compounds as FAAH Inhibitors” (Pfizer Inc., priority 2008, published 2011).

Legend:
[1] = biological target: T1, human FAAH (Homo sapiens, UniProt O00519); test: FAAH assay, human FAAH enzyme inactivation (kinact/Ki); type: biochemical; settings: oleamide 50 μM, 30° C.; for kinact/KI: pH 7.4, in vitro, read-out: hFAAH kinact/Ki; for hFAAH kinact/Ki: in vitro, pH 7.4
T1 construct: made in house; host or cells: E. coli
T1 sequence (O00519 1-579): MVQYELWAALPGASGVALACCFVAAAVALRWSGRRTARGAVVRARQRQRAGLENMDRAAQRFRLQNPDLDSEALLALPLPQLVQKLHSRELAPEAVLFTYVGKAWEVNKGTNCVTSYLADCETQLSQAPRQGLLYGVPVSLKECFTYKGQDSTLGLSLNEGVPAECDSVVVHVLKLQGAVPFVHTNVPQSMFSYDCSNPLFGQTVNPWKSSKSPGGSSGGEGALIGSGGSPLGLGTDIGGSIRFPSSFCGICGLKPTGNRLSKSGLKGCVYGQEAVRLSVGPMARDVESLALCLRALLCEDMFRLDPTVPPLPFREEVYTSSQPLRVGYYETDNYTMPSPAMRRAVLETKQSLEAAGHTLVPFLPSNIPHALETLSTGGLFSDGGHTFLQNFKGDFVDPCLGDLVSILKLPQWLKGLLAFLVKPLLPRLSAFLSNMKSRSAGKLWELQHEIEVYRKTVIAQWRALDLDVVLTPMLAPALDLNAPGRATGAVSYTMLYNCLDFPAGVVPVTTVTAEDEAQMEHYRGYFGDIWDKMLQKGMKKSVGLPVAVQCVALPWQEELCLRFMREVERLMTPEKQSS
How it was run: (§1)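 Oleamide hydrolysis by 1-4 nM purified E. coli-expressed FAAH (substrate 50 μM = Km) coupled to GDH/NADH, pH 7.4 phosphate, 7.5% DMSO and EtOH, 30° C; A340 followed 90 min. kobs from mono-exponential fits; kinact/Ki from kobs-versus-concentration slope, multiplied by two.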

[2] = biological target: T2, rat FAAH (Rattus norvegicus, UniProt P97612); test: FAAH assay, rat FAAH enzyme inactivation (kinact/Ki); type: biochemical; settings: oleamide 50 μM, 30° C.; for kinact/KI: pH 7.4, in vitro, read-out: rFAAH kinact/Ki; for rFAAH kinact/Ki: in vitro, pH 7.4
T2 construct: made in house; host or cells: E. coli
T2 sequence (P97612 1-579): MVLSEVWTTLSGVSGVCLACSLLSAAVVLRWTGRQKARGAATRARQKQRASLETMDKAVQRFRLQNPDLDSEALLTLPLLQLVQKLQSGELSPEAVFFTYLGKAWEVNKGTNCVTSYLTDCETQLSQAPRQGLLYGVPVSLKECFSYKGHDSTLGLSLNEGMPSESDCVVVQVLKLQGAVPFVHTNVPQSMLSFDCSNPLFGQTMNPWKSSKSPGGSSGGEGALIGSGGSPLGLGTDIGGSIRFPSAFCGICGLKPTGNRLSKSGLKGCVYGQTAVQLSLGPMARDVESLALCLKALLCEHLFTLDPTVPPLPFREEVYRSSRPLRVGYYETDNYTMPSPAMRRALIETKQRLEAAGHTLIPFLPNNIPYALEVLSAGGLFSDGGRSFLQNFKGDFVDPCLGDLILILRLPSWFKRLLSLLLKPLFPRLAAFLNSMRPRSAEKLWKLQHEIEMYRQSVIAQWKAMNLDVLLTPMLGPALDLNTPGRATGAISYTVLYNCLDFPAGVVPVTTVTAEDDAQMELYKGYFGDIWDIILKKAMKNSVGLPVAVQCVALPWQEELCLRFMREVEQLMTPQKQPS
How it was run: as §1

[3] = test system: Male Sprague-Dawley Rats; test: In vivo Complete Freund's Adjuvant (CFA) efficacy assay, inhibition of allodynia; design: species or system rat; key: (+) indicates the test compound was determined to be efficacious at 3 mpk, oral dosing; (−) indicates the test compound was determined to not be efficacious at 3 mpk, oral dosing; settings: 3 mpk, oral dosing; PWT four hours postdose; p < 0.05 vs vehicle group
How it was run: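 Adult male Sprague-Dawley rats weighing 200 g-250 g received an intra-plantar injection of 150 uL Complete Freund's Adjuvant into the left hindpaw to induce inflammation. On day 4 after injection, baseline paw withdrawal threshold was measured with Von Frey hairs using the Dixon Up and Down method. Threshold was measured again at four hours postdose. Treatment groups were compared by ANOVA with Dunnett's two-tailed test.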

Compound	kinact/KI [1]	kinact/KI [2]	CFA Efficacy [3]	hFAAH kinact/Ki [1]	rFAAH kinact/Ki [2]
Cn1nnnc1NC(=O)N1CCC2(CC1)C[C@H](c1ccc(OCc3ccc(F)c(F)c3)cc1)CO2 [Example 88, (3R)-3-{4-[(3,4-difluorobenzyl)oxy]phenyl}-N-(1-methyl-1H-tetrazol-5-yl)-1-oxa-8-azaspiro[4.5]decane-8-carboxamide]	32600 M⁻¹ s⁻¹	25000 M⁻¹ s⁻¹	(+)		
Cc1noc(NC(=O)N2CCC3(CC2)CC(c2noc(-c4ccc(OC(F)(F)F)cc4)n2)CO3)c1C (single isomer, unassigned) [Example 72, N-(3,4-dimethylisoxazol-5-yl)-3-{5-[4-(trifluoromethoxy)phenyl]-1,2,4-oxadiazol-3-yl}-1-oxa-8-azaspiro[4.5]decane-8-carboxamide]	4250 M⁻¹ s⁻¹	1500 M⁻¹ s⁻¹	(+)		
Cc1noc(NC(=O)N2CCC3(CC2)C[C@H](c2cccc(-c4ccc(F)cc4)c2)CO3)c1C [Example 59, (3R)—N-(3,4-dimethylisoxazol-5-yl)-3-(4′-fluorobiphenyl-3-yl)-1-oxa-8-azaspiro[4.5]decane-8-carboxamide]	3130 M⁻¹ s⁻¹	879 M⁻¹ s⁻¹	(+)		
Cc1noc(NC(=O)N2CCC3(CC2)CC(c2ccc(OCc4cccc(Cl)c4)c(Cl)c2)CO3)c1C (single isomer, unassigned) [Example 46, 3-{3-chloro-4-[(3-chlorobenzyl)oxy]phenyl}-N-(3,4-dimethylisoxazol-5-yl)-1-oxa-8-azaspiro[4.5]decane-8-carboxamide]			(+)	4490 M⁻¹ s⁻¹	6920 M⁻¹ s⁻¹
Cc1noc(NC(=O)N2CCC3(CC2)CC(c2ccc(Cl)c(Cl)c2)CO3)c1C (single isomer, unassigned) [Example 37, 3-(3,4-dichlorophenyl)-N-(3,4-dimethylisoxazol-5-yl)-1-oxa-8-azaspiro[4.5]decane-8-carboxamide]		4540 M⁻¹ s⁻¹	(+)	4130 M⁻¹ s⁻¹	
O=C(Nc1cccnn1)N1CCC2(CC1)C[C@@H](c1cccc(Oc3ccc(Br)cn3)c1)CO2 [Example 10, (3S)-3-{3-[(5-bromopyridin-2-yl)oxy]phenyl}-N-pyridazin-3-yl-1-oxa-8-azaspiro[4.5]decane-8-carboxamide]	2690 M⁻¹ s⁻¹	5890 M⁻¹ s⁻¹	(+)		
O=C(Nc1cccnn1)N1CCC2(CC1)C[C@@H](c1cccc(Oc3ccc(Cl)cn3)c1)CO2 [Example 12, (3S)-3-{3-[(5-chloropyridin-2-yl)oxy]phenyl}-N-pyridazin-3-yl-1-oxa-8-azaspiro[4.5]decane-8-carboxamide]	2190 M⁻¹ s⁻¹	2270 M⁻¹ s⁻¹	(+)		
Cc1noc(NC(=O)N2CCC3(CC2)C[C@H](c2ccc(OCc4cccc(F)c4)cc2)CO3)c1C [Example 47, (3R)—N-(3,4-dimethylisoxazol-5-yl)-3-{4-[(3-fluorobenzyl)oxy]phenyl}-1-oxa-8-azaspiro[4.5]decane-8-carboxamide]	9350 M⁻¹ s⁻¹	6260 M⁻¹ s⁻¹	(+)		
Cc1noc(NC(=O)N2CCC3(CC2)C[C@H](c2cccc(-c4ccc(Cl)cc4)c2)CO3)c1C [Example 61, (3R)-3-(4′-chlorobiphenyl-3-yl)-N-(3,4-dimethylisoxazol-5-yl)-1-oxa-8-azaspiro[4.5]decane-8-carboxamide]	1220 M⁻¹ s⁻¹	433 M⁻¹ s⁻¹	(+)		
O=C(Nc1cccnc1)N1CCC2(CC1)C[C@@H](c1cccc(Oc3ccc(Br)cn3)c1)CO2 [Example 8]	1950 M⁻¹ s⁻¹	3520 M⁻¹ s⁻¹	(+)		
O=C(Nc1cccnn1)N1CCC2(CC1)C[C@H](c1cccc(Oc3ccc(Br)cn3)c1)CO2 [Example 9, (3R)-3-{3-[(5-bromopyridin-2-yl)oxy]phenyl}-N-pyridazin-3-yl-1-oxa-8-azaspiro[4.5]decane-8-carboxamide]	4970 M⁻¹ s⁻¹	3340 M⁻¹ s⁻¹	(+)		
Cn1nnnc1NC(=O)N1CCC2(CC1)CC(c1cccc(OC(F)(F)F)c1)CO2 (single isomer, unassigned) [Example 77, N-(1-methyl-1H-tetrazol-5-yl)-3-[3-(trifluoromethoxy)phenyl]-1-oxa-8-azaspiro[4.5]decane-8-carboxamide]	7110 M⁻¹ s⁻¹	4560 M⁻¹ s⁻¹	(+)		
O=C(Nc1cccnc1)N1CCC2(CC1)C[C@H](c1cccc(Oc3ccc(Br)cn3)c1)CO2 [Example 7, (3R)-3-{3-[(5-bromopyridin-2-yl)oxy]phenyl}-N-pyridin-3-yl-1-oxa-8-azaspiro[4.5]decane-8-carboxamide]	2890 M⁻¹ s⁻¹	526 M⁻¹ s⁻¹	(+)		
Cc1noc(NC(=O)N2CCC3(CC2)CC(c2cccc(OC(F)(F)F)c2)CO3)c1C (single isomer, unassigned) [Example 33, N-(3,4-dimethylisoxazol-5-yl)-3-[3-(trifluoromethoxy)phenyl]-1-oxa-8-azaspiro[4.5]decane-8-carboxamide]	3420 M⁻¹ s⁻¹	4070 M⁻¹ s⁻¹	(+)		
Cc1noc(NC(=O)N2CCC3(CC2)CC(c2ccc(OCc4ccccc4Cl)c(Cl)c2)CO3)c1C (single isomer, unassigned) [Example 43, 3-{3-chloro-4-[(2-chlorobenzyl)oxy]phenyl}-N-(3,4-dimethylisoxazol-5-yl)-1-oxa-8-azaspiro[4.5]decane-8-carboxamide]			(+)	3620 M⁻¹ s⁻¹	5870 M⁻¹ s⁻¹
Cc1noc(NC(=O)N2CCC3(CC2)C[C@H](c2ccc(OCc4ccc(Cl)cc4)cc2)CO3)c1C [Example 49, (3R)-3-{4-[(4-chlorobenzyl)oxy]phenyl}-N-(3,4-dimethylisoxazol-5-yl)-1-oxa-8-azaspiro[4.5]decane-8-carboxamide]	16800 M⁻¹ s⁻¹	21900 M⁻¹ s⁻¹	(−)		
Cc1noc(NC(=O)N2CCC3(CC2)C[C@@H](c2cccc(-c4ccc(F)cc4)c2)CO3)c1C [Example 60, (3S)—N-(3,4-dimethylisoxazol-5-yl)-3-(4′-fluorobiphenyl-3-yl)-1-oxa-8-azaspiro[4.5]decane-8-carboxamide]	2110 M⁻¹ s⁻¹	2750 M⁻¹ s⁻¹	(+)		
Cn1nnnc1NC(=O)N1CCC2(CC1)C[C@H](c1cccc(-c3ccc(F)cc3)c1)CO2 [Example 96, (3R)-3-(4′-fluorobiphenyl-3-yl)-N-(1-methyl-1H-tetrazol-5-yl)-1-oxa-8-azaspiro[4.5]decane-8-carboxamide]	26300 M⁻¹ s⁻¹	2010 M⁻¹ s⁻¹	(+)		
